Key:
[1] = system: B. subtilis 168; experiment: fitness (endpoint OD595 vs no drug) (fraction); higher = more growth
How it was run: (§1)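 Each well of a 384-well plate received 30 µl of culture at OD595 0.01, or 55 µl for S. pneumoniae. TSB, LB Lennox or CY served as media at 37 °C. OD595 was taken every 30 min for 14 h and corrected by subtracting the first reading. Fitness is the optical density at stationary-phase entry divided by the robust mean of no-drug controls, capped at 1.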

[2] = system: S. aureus DSM 20231; experiment: as above
How it was run: as §1

[3] = system: S. aureus Newman; experiment: as above
How it was run: as §1

[4] = system: S. pneumoniae D39V; experiment: as above
How it was run: as §1

[5] = system: B. subtilis 168; experiment: Bliss interaction score (quartile over a dose matrix) (fitness difference); higher = more antagonism (negative = synergy)
How it was run: (§2)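 Each plate was normalised to the robust mean of its own no-drug wells, using OD595 at entry into stationary phase, with values capped at 1. This normalised growth is the fitness value. The Bliss score is the difference between observed and product-expected fitness, with single-drug fitness inferred from the combination data and quartiles taken over technical, biological and donor/recipient replicates.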

[6] = system: S. aureus DSM 20231; experiment: as above
How it was run: as §2

[7] = system: S. aureus Newman; experiment: as above
How it was run: as §2

[8] = system: S. pneumoniae D39V; experiment: as above
How it was run: as §2

[9] = first compound 0.0075 µg/mL, partner 85.5 µg/mL
[10] = first compound 0.0075 µg/mL, partner 171 µg/mL
[11] = first compound 0.0075 µg/mL, partner 342 µg/mL
[12] = first compound 0.0075 µg/mL, partner 1.25 µg/mL
[13] = first compound 0.0075 µg/mL, partner 2.5 µg/mL
[14] = first compound 0.0075 µg/mL, partner 5 µg/mL
[15] = first compound 0.015 µg/mL, partner 1.25 µg/mL
[16] = first compound 0.015 µg/mL, partner 2.5 µg/mL
[17] = first compound 0.015 µg/mL, partner 5 µg/mL
[18] = first compound 0.03 µg/mL, partner 1.25 µg/mL
[19] = first compound 0.03 µg/mL, partner 2.5 µg/mL
[20] = first compound 0.03 µg/mL, partner 5 µg/mL
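Throughout, for Bliss interaction score (quartile over a dose matrix): first quartile when negative (synergy) and third quartile when positive (antagonism).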

COc1c(N2C[C@@H]3CCCN[C@@H]3C2)c(F)cc2c(=O)c(C(=O)O)cn(C3CC3)c12 [Moxifloxacin] + CCN(CC)CCOC(=O)c1ccc(N)cc1 [Procaine]
fitness ([1]; first compound 0.0312 µg/mL, partner 85.5 µg/mL): 0.0464
fitness ([1]; first compound 0.0312 µg/mL, partner 171 µg/mL): 0.0462
fitness ([1]; first compound 0.0312 µg/mL, partner 342 µg/mL): 0.0422
fitness ([1]; first compound 0.0625 µg/mL, partner 85.5 µg/mL): 0.051
fitness ([1]; first compound 0.0625 µg/mL, partner 171 µg/mL): 0.0447
fitness ([1]; first compound 0.0625 µg/mL, partner 342 µg/mL): 0.0546
fitness ([1]; first compound 0.125 µg/mL, partner 85.5 µg/mL): 0.0477
fitness ([1]; first compound 0.125 µg/mL, partner 171 µg/mL): 0.041
fitness ([1]; first compound 0.125 µg/mL, partner 342 µg/mL): 0.0508
fitness ([1]; first compound 2 µg/mL, partner 85.5 µg/mL): 0.0328
fitness ([1]; first compound 2 µg/mL, partner 171 µg/mL): 0.02
fitness ([1]; first compound 2 µg/mL, partner 342 µg/mL): 0.021
fitness ([1]; first compound 4 µg/mL, partner 85.5 µg/mL): 0.0283
fitness ([1]; first compound 4 µg/mL, partner 171 µg/mL): 0.0228
fitness ([1]; first compound 4 µg/mL, partner 342 µg/mL): 0.0275
fitness ([1]; first compound 8 µg/mL, partner 85.5 µg/mL): 0.017
fitness ([1]; first compound 8 µg/mL, partner 171 µg/mL): 0.0132
fitness ([1]; first compound 8 µg/mL, partner 342 µg/mL): 0.0182
fitness [2, 9]: 0.781
fitness [2, 10]: 0.876
fitness [2, 11]: 0.898
fitness ([2]; first compound 0.015 µg/mL, partner 85.5 µg/mL): 0.712
fitness ([2]; first compound 0.015 µg/mL, partner 171 µg/mL): 0.744
fitness ([2]; first compound 0.015 µg/mL, partner 342 µg/mL): 0.773
fitness ([2]; first compound 0.03 µg/mL, partner 85.5 µg/mL): 0.619
fitness ([2]; first compound 0.03 µg/mL, partner 171 µg/mL): 0.677
fitness ([2]; first compound 0.03 µg/mL, partner 342 µg/mL): 0.669
fitness ([2]; first compound 0.06 µg/mL, partner 85.5 µg/mL, one replicate): 0.684
fitness ([2]; first compound 0.06 µg/mL, partner 171 µg/mL, one replicate): 0.666
fitness ([2]; first compound 0.06 µg/mL, partner 342 µg/mL, one replicate): 0.688
fitness ([2]; first compound 0.12 µg/mL, partner 85.5 µg/mL, one replicate): 0.481
fitness ([2]; first compound 0.12 µg/mL, partner 171 µg/mL, one replicate): 0.468
fitness ([2]; first compound 0.12 µg/mL, partner 342 µg/mL, one replicate): 0.492
fitness [3, 9]: 0.771
fitness [3, 10]: 0.757
fitness [3, 11]: 0.763
fitness ([4]; first compound 0.0037 µg/mL, partner 85.5 µg/mL, one replicate): 0.927
fitness ([4]; first compound 0.0037 µg/mL, partner 171 µg/mL, one replicate): 0.926
fitness ([4]; first compound 0.0037 µg/mL, partner 342 µg/mL, one replicate): 0.826
fitness ([4]; first compound 0.005 µg/mL, partner 85.5 µg/mL): ≥ 1
fitness ([4]; first compound 0.005 µg/mL, partner 171 µg/mL): 0.996
fitness ([4]; first compound 0.005 µg/mL, partner 342 µg/mL): ≥ 1
fitness ([4]; first compound 0.0075 µg/mL, partner 85.5 µg/mL, one replicate): ≥ 1
fitness ([4]; first compound 0.0075 µg/mL, partner 171 µg/mL, one replicate): 0.93
fitness ([4]; first compound 0.0075 µg/mL, partner 342 µg/mL, one replicate): 0.845
fitness ([4]; first compound 0.01 µg/mL, partner 85.5 µg/mL): ≥ 1
fitness ([4]; first compound 0.01 µg/mL, partner 171 µg/mL): 0.986
fitness ([4]; first compound 0.01 µg/mL, partner 342 µg/mL): 0.974
fitness ([4]; first compound 0.015 µg/mL, partner 85.5 µg/mL, one replicate): 0.881
fitness ([4]; first compound 0.015 µg/mL, partner 171 µg/mL, one replicate): 0.923
fitness ([4]; first compound 0.015 µg/mL, partner 342 µg/mL, one replicate): 0.849
fitness ([4]; first compound 0.02 µg/mL, partner 85.5 µg/mL): 0.966
fitness ([4]; first compound 0.02 µg/mL, partner 171 µg/mL): 0.929
fitness ([4]; first compound 0.02 µg/mL, partner 342 µg/mL): 0.874
Bliss interaction score [5]: -0.015
Bliss interaction score [6]: -0.0665
Bliss interaction score [7]: 0.0617
Bliss interaction score [8]: 0.0674

COc1c(N2C[C@@H]3CCCN[C@@H]3C2)c(F)cc2c(=O)c(C(=O)O)cn(C3CC3)c12 [Moxifloxacin] + CN1C2=CC=CC=C2N=C3C1=CC=CC3=O [Pyocyanin]
fitness ([1]; first compound 0.0312 µg/mL, partner 1.25 µg/mL): 0.0609
fitness ([1]; first compound 0.0312 µg/mL, partner 2.5 µg/mL): 0.0599
fitness ([1]; first compound 0.0312 µg/mL, partner 5 µg/mL): 0.0529
fitness ([1]; first compound 0.0625 µg/mL, partner 1.25 µg/mL): 0.0538
fitness ([1]; first compound 0.0625 µg/mL, partner 2.5 µg/mL): 0.0598
fitness ([1]; first compound 0.0625 µg/mL, partner 5 µg/mL): 0.057
fitness ([1]; first compound 0.125 µg/mL, partner 1.25 µg/mL): 0.0466
fitness ([1]; first compound 0.125 µg/mL, partner 2.5 µg/mL): 0.047
fitness ([1]; first compound 0.125 µg/mL, partner 5 µg/mL): 0.0468
fitness ([1]; first compound 2 µg/mL, partner 1.25 µg/mL): 0.0183
fitness ([1]; first compound 2 µg/mL, partner 2.5 µg/mL): 0.0257
fitness ([1]; first compound 2 µg/mL, partner 5 µg/mL): 0.0378
fitness ([1]; first compound 4 µg/mL, partner 1.25 µg/mL): 0.0241
fitness ([1]; first compound 4 µg/mL, partner 2.5 µg/mL): 0.0221
fitness ([1]; first compound 4 µg/mL, partner 5 µg/mL): 0.0304
fitness ([1]; first compound 8 µg/mL, partner 1.25 µg/mL): 0.012
fitness ([1]; first compound 8 µg/mL, partner 2.5 µg/mL): 0.0127
fitness ([1]; first compound 8 µg/mL, partner 5 µg/mL): 0.0179
fitness [2, 12]: 0.836
fitness [2, 13]: 0.755
fitness [2, 14]: 0.665
fitness [2, 15]: 0.743
fitness [2, 16]: 0.711
fitness [2, 17]: 0.569
fitness [2, 18]: 0.678
fitness [2, 19]: 0.706
fitness [2, 20]: 0.567
fitness ([2]; first compound 0.06 µg/mL, partner 1.25 µg/mL, one replicate): 0.671
fitness ([2]; first compound 0.06 µg/mL, partner 2.5 µg/mL, one replicate): 0.658
fitness ([2]; first compound 0.06 µg/mL, partner 5 µg/mL, one replicate): 0.651
fitness ([2]; first compound 0.12 µg/mL, partner 1.25 µg/mL, one replicate): 0.493
fitness ([2]; first compound 0.12 µg/mL, partner 2.5 µg/mL, one replicate): 0.514
fitness ([2]; first compound 0.12 µg/mL, partner 5 µg/mL, one replicate): 0.47
fitness [3, 12]: 0.679
fitness [3, 13]: 0.605
fitness [3, 14]: 0.372
fitness [3, 15]: 0.51
fitness [3, 16]: 0.434
fitness [3, 17]: 0.221
fitness [3, 18]: 0.157
fitness [3, 19]: 0.138
fitness [3, 20]: 0.0727
fitness ([4]; first compound 0.0037 µg/mL, partner 0.325 µg/mL, one replicate): 0.925
fitness ([4]; first compound 0.0037 µg/mL, partner 0.65 µg/mL, one replicate): 0.871
fitness ([4]; first compound 0.005 µg/mL, partner 0.325 µg/mL): ≥ 1
fitness ([4]; first compound 0.005 µg/mL, partner 0.65 µg/mL): 0.988
fitness ([4]; first compound 0.005 µg/mL, partner 1.3 µg/mL): 0.797
fitness ([4]; first compound 0.0075 µg/mL, partner 0.325 µg/mL, one replicate): 0.948
fitness ([4]; first compound 0.0075 µg/mL, partner 0.65 µg/mL, one replicate): 0.883
fitness ([4]; first compound 0.01 µg/mL, partner 0.325 µg/mL): ≥ 1
fitness ([4]; first compound 0.01 µg/mL, partner 0.65 µg/mL): 0.98
fitness ([4]; first compound 0.01 µg/mL, partner 1.3 µg/mL): 0.828
fitness ([4]; first compound 0.015 µg/mL, partner 0.325 µg/mL, one replicate): 0.911
fitness ([4]; first compound 0.015 µg/mL, partner 0.65 µg/mL, one replicate): 0.91
fitness ([4]; first compound 0.02 µg/mL, partner 0.325 µg/mL): ≥ 1
fitness ([4]; first compound 0.02 µg/mL, partner 0.65 µg/mL): 0.959
fitness ([4]; first compound 0.02 µg/mL, partner 1.3 µg/mL): 0.788
Bliss interaction score [5]: -0.0123
Bliss interaction score [6]: 0.0656
Bliss interaction score [7]: -0.0614
Bliss interaction score [8]: 0.0702

Source: the supplement of paper PMC10627819
